Tests used:
[1] = target: T1, 19 kDa protein from Oplophorus luciferase (Oplophorus gracilirostris, UniProt Q9GV45); experiment: Substrate specificity and luminescence activity of the 19 kDa protein from Oplophorus luciferase; format: biochemical; conditions: measured for 60 seconds, coelenterazine = 100
T1 construct: made in house
Description: The 19 kDa protein from Oplophorus luciferase was purified by the method described in Inouye, S. and Sasaki, S., Protein Express. Purif. (2007) 56: 261-268 and provided for use.
(§1) After 1 μl of the 19 kDa protein (2.3 mg/ml) from Oplophorus luciferase containing 1 mM DTT was dissolved in 100 μl of 30 mM Tris-HCl (pH 7.6) containing 10 mM EDTA, 1 μl of a solution of coelenterazine or its analogue (1 μg/μl) in ethanol was added to the solution to start the luminescence reaction, and the luminescence activity was measured for 60 seconds on a luminometer luminescencer-PSN AB2200 (manufactured by Atto Co., Ltd.). The luminescence activity was determined by repeating the measurement described above 3 times and expressed in terms of the maximum luminescence intensity (Imax) of luminescence activity.

[2] = tested on: Gaussia luciferase; experiment: Substrate specificity and luminescence activity of Gaussia luciferase; format: biochemical; conditions: measured for 10 seconds, coelenterazine = 100
Description: Gaussia luciferase was purified by the method described in Japanese Patent Application KOKAI No. 2008-099669 and provided for use. After 1 μl of Gaussia luciferase (0.024 mg/ml) was dissolved in 100 μl of phosphate buffered saline (manufactured by Sigma Inc.) containing 0.01% Tween 20 (manufactured by Sigma Inc.) and 10 mM EDTA, 1 μl of a solution of coelenterazine or its analogue (1 μg/μl) in ethanol was mixed with the solution to start the luminescence reaction. The luminescence activity was measured for 10 seconds on a luminometer luminescencer-PSN AB2200 (manufactured by Atto Co., Ltd.). The luminescence activity was determined by repeating the measurement described above 3 times and expressed in terms of the maximum luminescence intensity (Imax) of luminescence activity.

[3] = target: T2, Renilla luciferase (Renilla reniformis, UniProt P27652); experiment: Substrate specificity and luminescence activity of Renilla luciferase; format: biochemical; conditions: measured for 10 seconds, coelenterazine = 100
T2 construct: made in house
T2 sequence (P27652 1-311): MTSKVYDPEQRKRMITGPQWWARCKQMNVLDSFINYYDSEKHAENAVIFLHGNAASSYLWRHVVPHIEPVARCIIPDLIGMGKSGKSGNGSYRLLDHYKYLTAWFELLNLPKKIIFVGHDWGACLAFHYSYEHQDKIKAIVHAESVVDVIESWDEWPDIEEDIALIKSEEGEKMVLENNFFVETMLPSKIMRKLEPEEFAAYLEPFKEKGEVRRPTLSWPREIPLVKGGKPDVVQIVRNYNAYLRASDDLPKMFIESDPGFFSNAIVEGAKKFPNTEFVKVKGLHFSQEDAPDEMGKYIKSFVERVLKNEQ
Description: Renilla luciferase was purified by the method described in Inouye, S. & Shimomura, O. Biochem. Biophys. Res. Commun. (1997) 233: 349-353, and used for assay.
as §1, with “Renilla luciferase (0.45” for “the 19 kDa protein (2.3”, “mg/ml)” for “mg/ml) from Oplophorus luciferase containing 1 mM DTT”, “reaction. The” for “reaction, and the”, “10” for “60”, “measurement of luminescence activity” for “measurement”

[4] = Fluorescence spectra of coelenteramide analogue alone (absence of apoaequorin); format: physicochemical; conditions: analogue alone 8 μg/ml; for Coelenteramide (Buffer containing CaCl2) Fluorescence intensity (rlu) / Coelenteramide (Buffer containing CaCl2) Maximum fluorescence wavelength λmax (nm): 10 mM CaCl2 buffer pH 7.6, excitation 337 nm; for Coelenteramide (EDTA-containing buffer) Fluorescence intensity (rlu) / Coelenteramide (EDTA-containing buffer) Maximum fluorescence wavelength λmax (nm): 10 mM EDTA buffer pH 7.6, excitation 337 nm
Description: (§2) The fluorescence spectra were determined as follows. For coelenteramide analogue alone, the fluorescence was measured according to the procedures for semi-synthetic gFP and semi-synthetic BFP described in EXAMPLES 11 and 12, except for in the absence of apoaequorin, using 1 ml of 50 mM Tris-HCl (pH 7.6) containing 10 mM EDTA and 1 mM DTT or 1 ml of 50 mM Tris-HCl (pH 7.6) containing 10 mM CaCl2 and 1 mM DTT, in the final concentration of coelenteramide analogue adjusted to 8 μg/ml. The fluorescence spectra were measured at 25° C. in a quartz cell (10 mm light path length) using a Jasco FP-6500 spectrofluorometer (excitation wavelength: 337 nm, emission/excitation bandwidth: 3 nm; response: 0.5 sec, scan speed, 1000 nm/min).

[5] = target: T3, apoaequorin (Aequorea victoria, UniProt P07164); experiment: Fluorescence spectra of semi-synthetic gFP (coelenteramide analogue + apoaequorin, EDTA); format: physicochemical; conditions: 10 mM EDTA buffer, excitation 337 nm
T3 construct: purchased Chisso Corporation
Description: Semi-synthetic gFP was prepared from recombinant apoaequorin and coelenteramide analogues as follows. In 1 ml of 50 mM Tris-HC 1 (pH 7.6) containing 10 mM EDTA and 1 mM DTT, apoaequorin (0.2 mg) was mixed with 8 μl of a coelenteramide analogue (1 μg/μl in anhydrous methanol). The mixture was allowed to stand 4° C. for 16 hours to prepare semi-synthetic gFP-like protein (hereinafter sometimes simply referred to as “semi-synthetic gFP”).
as §2

[6] = target: T3, apoaequorin; experiment: Fluorescence spectra of semi-synthetic BFP (coelenteramide analogue + apoaequorin, CaCl2); format: physicochemical; conditions: 10 mM CaCl2 buffer, excitation 337 nm
Description: Semi-synthetic gFP was prepared from recombinant apoaequorin and coelenteramide analogues as follows. In 1 ml of 50 mM Tris-HC 1 (pH 7.6) containing 10 mM CaCl2 and 1 mM DTT, apoaequorin (0.2 mg) was mixed with 8 μl of a coelenteramide analogue (1 μg/μl in anhydrous methanol). The mixture was allowed to stand at 4° C. for 16 hours to prepare semi-synthetic BFP-like protein (hereinafter sometimes simply referred to as “semi-synthetic BFP”).
as §2

T3 sequence (P07164 other isoform, or with tags, fused parts or gaps with the stated changes): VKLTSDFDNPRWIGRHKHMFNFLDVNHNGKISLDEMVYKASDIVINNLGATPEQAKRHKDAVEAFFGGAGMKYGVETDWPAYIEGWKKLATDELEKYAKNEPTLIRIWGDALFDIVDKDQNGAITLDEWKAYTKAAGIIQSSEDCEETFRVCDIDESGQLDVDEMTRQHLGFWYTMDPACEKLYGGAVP
T1 sequence (Q9GV45 28-196): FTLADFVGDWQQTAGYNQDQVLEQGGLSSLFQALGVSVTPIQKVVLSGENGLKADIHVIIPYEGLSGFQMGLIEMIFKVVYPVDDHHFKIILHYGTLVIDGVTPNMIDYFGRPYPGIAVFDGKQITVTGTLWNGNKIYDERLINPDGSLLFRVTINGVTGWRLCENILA

O=c1c(Cc2ccc(O)cc2)nc2c(-c3ccsc3)[nH]c(-c3ccc(O)cc3)cn1-2 [Compound 3g, 2-(4-Hydroxybenzyl)-6-(4-hydroxyphenyl)-8-(thiophen-3-yl)imidazo[1,2-a]pyrazin-3(7H)-one]
Luminescence activity Imax (%) [1]: 0.3%
Luminescence activity Imax (%) [2]: 0.00%
Luminescence activity Imax (%) [3]: 0.00%

O=c1c(Cc2ccc(O)cc2)nc2c(-c3csc4ccccc34)[nH]c(-c3ccc(O)cc3)cn1-2 [Compound 3i, 8-(Benzo[b]thiophen-3-yl)-2-(4-hydroxybenzyl)-6-(4-hydroxyphenyl)imidazo[1,2-a]pyrazin-3(7H)-one]
Luminescence activity Imax (%) [1]: 0.09%
Luminescence activity Imax (%) [2]: 0.00%
Luminescence activity Imax (%) [3]: 0.00%

O=C(Cc1ccc(O)cc1)Nc1ncc(-c2ccc(O)cc2)nc1C#Cc1ccccc1 [Compound 4p, 2-(4-Hydroxyphenyl)-N-[5-(4-hydroxyphenyl)-3-(phenylethynyl)pyrazin-2-yl]acetamide]
Coelenteramide (Buffer containing CaCl2) Fluorescence intensity (rlu) [4]: 5.4 rlu
Coelenteramide (Buffer containing CaCl2) Maximum fluorescence wavelength λmax (nm) [4]: 484.5 nm
Coelenteramide (EDTA-containing buffer) Fluorescence intensity (rlu) [4]: 5.3 rlu
Coelenteramide (EDTA-containing buffer) Maximum fluorescence wavelength λmax (nm) [4]: 476.0 nm
Semi-synthetic gFP (EDTA-containing buffer) Fluorescence intensity (rlu) [5]: 21.1 rlu
Semi-synthetic gFP (EDTA-containing buffer) Maximum fluorescence wavelength λmax (nm) [5]: 523.0 nm
Fluorescence intensity [6]: 70.0 rlu
Semi-synthetic BFP (Buffer containing CaCl2) Maximum fluorescence wavelength λmax (nm) [6]: 548.5 nm

O=C(Cc1ccc(O)cc1)Nc1ncc(-c2ccc(O)cc2)nc1CCc1ccccc1 [Compound 4r, 2-(4-Hydroxyphenyl)-N-[5-(4-hydroxyphenyl)-3-phenethylpyrazin-2-yl]acetamide]
Coelenteramide (Buffer containing CaCl2) Fluorescence intensity (rlu) [4]: 10.2 rlu
Coelenteramide (Buffer containing CaCl2) Maximum fluorescence wavelength λmax (nm) [4]: 483.0 nm
Coelenteramide (EDTA-containing buffer) Fluorescence intensity (rlu) [4]: 10.3 rlu
Coelenteramide (EDTA-containing buffer) Maximum fluorescence wavelength λmax (nm) [4]: 481.0 nm
Semi-synthetic gFP (EDTA-containing buffer) Fluorescence intensity (rlu) [5]: 176.4 rlu
Semi-synthetic gFP (EDTA-containing buffer) Maximum fluorescence wavelength λmax (nm) [5]: 468.0 nm
Fluorescence intensity [6]: 159.9 rlu
Semi-synthetic BFP (Buffer containing CaCl2) Maximum fluorescence wavelength λmax (nm) [6]: 468.0 nm

O=C(Cc1ccc(O)cc1)Nc1cnc(-c2ccc(O)cc2)cn1 [Compound 4s, 2-(4-Hydroxyphenyl)-N-[5-(4-hydroxyphenyl)pyrazin-2-yl]acetamide]
Coelenteramide (Buffer containing CaCl2) Fluorescence intensity (rlu) [4]: 2.0 rlu
Coelenteramide (Buffer containing CaCl2) Maximum fluorescence wavelength λmax (nm) [4]: 468.5 nm
Coelenteramide (EDTA-containing buffer) Fluorescence intensity (rlu) [4]: 1.9 rlu
Coelenteramide (EDTA-containing buffer) Maximum fluorescence wavelength λmax (nm) [4]: 457.5 nm
Semi-synthetic gFP (EDTA-containing buffer) Fluorescence intensity (rlu) [5]: 106.4 rlu
Semi-synthetic gFP (EDTA-containing buffer) Maximum fluorescence wavelength λmax (nm) [5]: 460.0 nm
Fluorescence intensity [6]: 22.1 rlu
Semi-synthetic BFP (Buffer containing CaCl2) Maximum fluorescence wavelength λmax (nm) [6]: 408.5 nm

Oc1ccc(NC(=S)Nc2ncc(-c3ccc(O)cc3)nc2Cc2ccccc2)cc1 [Compound 4v, 1-[3-Benzyl-5-(4-hydroxyphenyl)pyrazin-2-yl]-3-(4-hydroxyphenyl)thiourea]
Coelenteramide (Buffer containing CaCl2) Fluorescence intensity (rlu) [4]: 1.4 rlu
Coelenteramide (Buffer containing CaCl2) Maximum fluorescence wavelength λmax (nm) [4]: 466.0 nm
Coelenteramide (EDTA-containing buffer) Fluorescence intensity (rlu) [4]: 1.4 rlu
Coelenteramide (EDTA-containing buffer) Maximum fluorescence wavelength λmax (nm) [4]: 484.0 nm
Semi-synthetic gFP (EDTA-containing buffer) Fluorescence intensity (rlu) [5]: 3.6 rlu
Semi-synthetic gFP (EDTA-containing buffer) Maximum fluorescence wavelength λmax (nm) [5]: 491.0 nm
Fluorescence intensity [6]: 3.3 rlu
Semi-synthetic BFP (Buffer containing CaCl2) Maximum fluorescence wavelength λmax (nm) [6]: 430.5 nm

CC(C(=O)Nc1ncc(-c2ccc(O)cc2)nc1Cc1ccccc1)c1ccc(O)cc1 (stereo not drawn) [Compound 4w, N-[3-Benzyl-5-(4-hydroxyphenyl)pyrazin-2-yl]-2-(4-hydroxyphenyl)propanamide]
Coelenteramide (Buffer containing CaCl2) Fluorescence intensity (rlu) [4]: 1.4 rlu
Coelenteramide (Buffer containing CaCl2) Maximum fluorescence wavelength λmax (nm) [4]: 450.5 nm
Coelenteramide (EDTA-containing buffer) Fluorescence intensity (rlu) [4]: 1.3 rlu
Coelenteramide (EDTA-containing buffer) Maximum fluorescence wavelength λmax (nm) [4]: 451.0 nm
Semi-synthetic gFP (EDTA-containing buffer) Fluorescence intensity (rlu) [5]: 54.6 rlu
Semi-synthetic gFP (EDTA-containing buffer) Maximum fluorescence wavelength λmax (nm) [5]: 487.0 nm
Fluorescence intensity [6]: 181.4 rlu
Semi-synthetic BFP (Buffer containing CaCl2) Maximum fluorescence wavelength λmax (nm) [6]: 466.0 nm

O=C(Nc1ncc(-c2ccc(O)cc2)nc1Cc1ccccc1)c1cccc2cc(O)ccc12 [Compound 4z, N-[3-Benzyl-5-(4-hydroxyphenyl)pyrazin-2-yl]-6-hydroxy-1-naphthamide]
Coelenteramide (Buffer containing CaCl2) Fluorescence intensity (rlu) [4]: 13.2 rlu
Coelenteramide (Buffer containing CaCl2) Maximum fluorescence wavelength λmax (nm) [4]: 410.5 nm
Coelenteramide (EDTA-containing buffer) Fluorescence intensity (rlu) [4]: 20.2 rlu
Coelenteramide (EDTA-containing buffer) Maximum fluorescence wavelength λmax (nm) [4]: 409.5 nm
Semi-synthetic gFP (EDTA-containing buffer) Fluorescence intensity (rlu) [5]: 246.3 rlu
Semi-synthetic gFP (EDTA-containing buffer) Maximum fluorescence wavelength λmax (nm) [5]: 492.5 nm
Fluorescence intensity [6]: 24.6 rlu
Semi-synthetic BFP (Buffer containing CaCl2) Maximum fluorescence wavelength λmax (nm) [6]: 487.0 nm

From patent US9056840B2, “Coelenterazine analogues and coelenteramide analogues” (JNC Corporation, priority 2010, dated 2015)
